Source: PubChem BioAssay AID1195 (EPA DSSTox, 2008)

Test system: human maximum recommended daily dose, FDA database
Experiment: DSSTox (FDAMDD) FDA Maximum (Recommended) Daily Dose Database
Details: active compounds read low
How it was run: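 MRDD values come from clinical trials with daily oral dosing, usually for 3–12 months, for the average adult, in mg/day converted to mg/kg-bw/day assuming 60 kg. Antineoplastic mg/m2 doses are divided by 37. Activity score maps log10(1/MRDD mmol) onto 1–100.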

[1] = TherapeuticCategory: antihypertensive, antianginal, antiarrhythmic, antiglaucomic
[2] = TherapeuticCategory: antiulcerative
[3] = TherapeuticCategory: sedative, hypnotic
[4] = TherapeuticCategory: antibacterial
[5] = TherapeuticCategory: antihypertensive
[6] = TherapeuticCategory: anticonvulsant
[7] = TherapeuticCategory: antidepressant
[8] = TherapeuticCategory: glucocorticoid

CC(C)(C)NCC(O)COc1cccc2c1CCC(=O)N2 (stereo unspecified)
maximum recommended daily dose (mmol/kg-bw/day) [1]: 0.000571

CCCCC(C)(O)C/C=C/[C@H]1[C@H](O)CC(=O)[C@@H]1CCCCCCC(=O)OC (stereo partly specified)
maximum recommended daily dose (mmol/kg-bw/day) [2]: 3.48e-05

C=CCC1(C(C)CC)C(=O)NC(=O)NC1=O (stereo unspecified)
maximum recommended daily dose (mmol/kg-bw/day) [3]: 0.0148

CC[C@]1(O)CC[C@H]2[C@@H]3CCC4=CCCC[C@@H]4[C@H]3CC[C@@]21C
maximum recommended daily dose (mmol/kg-bw/day) (TherapeuticCategory: anabolic): 0.000231

COc1cccc2c1C(=O)c1c(O)c3c(c(O)c1C2=O)C[C@@](O)(C(=O)CO)C[C@@H]3O[C@H]1C[C@H](N)[C@H](O)[C@H](C)O1
maximum recommended daily dose (mmol/kg-bw/day) (TherapeuticCategory: antineoplastic): 0.00447

OCc1ccccc1
maximum recommended daily dose (mmol/kg-bw/day) (TherapeuticCategory: none): 0.0462

CCN(CC)CCC1(c2ccccc2)CCC(=O)NC1=O (stereo unspecified)
maximum recommended daily dose (mmol/kg-bw/day) (TherapeuticCategory: anticholinergic, antiparkinsonian): 0.00289

COc1ccc(NS(=O)(=O)c2ccc(N)cc2)nn1
maximum recommended daily dose (mmol/kg-bw/day) [4]: 0.0892

C[C@H](N)[C@H](O)c1cccc(O)c1
maximum recommended daily dose (mmol/kg-bw/day) (TherapeuticCategory: adrenergic): 0.0498

C=C[C@H]1CN2CC[C@H]1C[C@@H]2[C@@H](O)c1ccnc2ccc(OC)cc12
maximum recommended daily dose (mmol/kg-bw/day) (TherapeuticCategory: anthiarrythmic): 0.0308

NC(N)=NCCN1CCCCCCC1
maximum recommended daily dose (mmol/kg-bw/day) [5]: 0.0042

Cc1onc(-c2ccccc2Cl)c1C(=O)N[C@@H]1C(=O)N2[C@@H]1SC(C)(C)[C@@H]2C(=O)O
maximum recommended daily dose (mmol/kg-bw/day) [4]: 0.0764

CCCCCCCCCCC[C@@H](C[C@@H]1OC(=O)[C@H]1CCCCCC)OC(=O)C(CC(C)C)NC=O (stereo partly specified)
maximum recommended daily dose (mmol/kg-bw/day) (TherapeuticCategory: antiobesity): 0.0121

CC1C(c2ccccc2)OCCN1C (stereo unspecified)
maximum recommended daily dose (mmol/kg-bw/day) (TherapeuticCategory: anorexic): 0.0183

CN1C(=O)OC(C)(C)C1=O
maximum recommended daily dose (mmol/kg-bw/day) [6]: 0.279

NC(N)=NS(=O)(=O)c1ccc(N)cc1
maximum recommended daily dose (mmol/kg-bw/day) [4]: 0.0934

NS(=O)(=O)c1cc(C(=O)O)c(NCc2ccco2)cc1Cl
maximum recommended daily dose (mmol/kg-bw/day) (TherapeuticCategory: diuretic, antihypertensive): 0.0302

CO/N=C(\C(=O)N[C@@H]1C(=O)N2C(C(=O)O)=C(CSc3nnnn3C)CS[C@H]12)c1csc(N)n1
maximum recommended daily dose (mmol/kg-bw/day) [4]: 0.13

CC(C)(C)NC(=O)[C@H]1CC[C@H]2[C@@H]3CC[C@H]4NC(=O)C=C[C@]4(C)[C@H]3CC[C@]12C
maximum recommended daily dose (mmol/kg-bw/day) (TherapeuticCategory: prostatic hypertrophy treatment): 0.000224

CC(=O)[C@H]1CC[C@H]2[C@@H]3CC[C@H]4C[C@H](O)CC[C@]4(C)[C@H]3C(=O)C[C@]12C
maximum recommended daily dose (mmol/kg-bw/day) (TherapeuticCategory: anesthetic): 0.00203

CCn1cc(C(=O)O)c(=O)c2cc(F)c(N3CCNCC3)nc21
maximum recommended daily dose (mmol/kg-bw/day) [4]: 0.0624

NC(=O)NC(=O)Cc1ccccc1
maximum recommended daily dose (mmol/kg-bw/day) [6]: 0.281

O=C(OCC(COC(=O)c1cccnc1)(COC(=O)c1cccnc1)COC(=O)c1cccnc1)c1cccnc1
maximum recommended daily dose (mmol/kg-bw/day) (TherapeuticCategory: antihyperlipoproteinemic): 0.00719

CN(C)CCO
maximum recommended daily dose (mmol/kg-bw/day) [7]: 0.168

CNCCC=C1c2ccccc2CCc2ccccc21
maximum recommended daily dose (mmol/kg-bw/day) [7]: 0.00634

CO/N=C(/C(=O)N[C@@H]1C(=O)N2C(C(=O)OC(C)OC(C)=O)=C(COC(N)=O)CS[C@H]12)c1ccco1 (stereo partly specified)
maximum recommended daily dose (mmol/kg-bw/day) [4]: 0.0327

N[C@@H](C(=O)N[C@@H]1C(=O)N2C(C(=O)O)=C(Cl)CS[C@H]12)c1ccccc1
maximum recommended daily dose (mmol/kg-bw/day) [4]: 0.068

CCOC(=O)Nc1ccc2c(c1)N(C(=O)CCN1CCOCC1)c1ccccc1S2
maximum recommended daily dose (mmol/kg-bw/day) (TherapeuticCategory: antiarrhythmic): 0.0351

CCOc1ccc(NC(C)=O)cc1
maximum recommended daily dose (mmol/kg-bw/day) (TherapeuticCategory: anticonvulsant, analgesic, antipyretic): 0.279

CC(I)C1OCC(CO)O1 (stereo unspecified)
maximum recommended daily dose (mmol/kg-bw/day) (TherapeuticCategory: expectorant): 0.0155

CCOc1ccc2nc(S(N)(=O)=O)sc2c1
maximum recommended daily dose (mmol/kg-bw/day) (TherapeuticCategory: carbonic anhydrase inhibitor, diuretic): 0.0322

C#C[C@]1(O)CC[C@H]2[C@@H]3CCC4=Cc5oncc5C[C@]4(C)[C@H]3CC[C@@]21C
maximum recommended daily dose (mmol/kg-bw/day) (TherapeuticCategory: antigonadotropin): 0.0394

NC[C@@H]1CC[C@@H](N)[C@@H](O[C@H]2[C@H](O)[C@@H](O[C@H]3O[C@H](CO)[C@@H](O)[C@H](N)[C@H]3O)[C@H](N)C[C@@H]2N)O1
maximum recommended daily dose (mmol/kg-bw/day) [4]: 0.00664

C/C(=C(/CCO)SSCC1CCCO1)N(C=O)Cc1cnc(C)nc1N (stereo unspecified)
maximum recommended daily dose (mmol/kg-bw/day) (TherapeuticCategory: enzyme cofactor): 0.00419

N[C@@H]1[C@@H](O)[C@H](O)[C@@H](CO)O[C@H]1O
maximum recommended daily dose (mmol/kg-bw/day) (TherapeuticCategory: antiarthritic): 0.558

Nc1nc2ncc(CNc3ccc(C(=O)N[C@@H](CCC(=O)O)C(=O)O)cc3)nc2c(=O)[nH]1
maximum recommended daily dose (mmol/kg-bw/day) (TherapeuticCategory: hematopoetic): 3.01e-05

CCCCCCCCCCCCCCCCCC(=O)OCC(=O)OCC(=O)[C@@]1(O)CC[C@H]2[C@@H]3CCC4=CC(=O)C=C[C@]4(C)[C@H]3[C@@H](O)C[C@@]21C
maximum recommended daily dose (mmol/kg-bw/day) [8]: 0.00486

CC(CCc1ccccc1)NCC(O)c1ccc(O)c(C(N)=O)c1 (stereo unspecified)
maximum recommended daily dose (mmol/kg-bw/day) [5]: 0.122

C[C@]12C=CC(=O)C=C1CC[C@@H]1[C@@H]2[C@@H](O)C[C@@]2(C)[C@H]1CC[C@]2(O)C(=O)COC(=O)CCC(=O)O
maximum recommended daily dose (mmol/kg-bw/day) [8]: 0.0069

COc1cc(NS(=O)(=O)c2ccc(N)cc2)c(OC)nn1
maximum recommended daily dose (mmol/kg-bw/day) [4]: 0.161

O=C1NC(=O)[C@@]2(CCOc3ccc(F)cc32)N1
maximum recommended daily dose (mmol/kg-bw/day) (TherapeuticCategory: none): 0.0177

CC(C)(C)NCC(O)c1cc(Cl)c(N)c(Cl)c1 (stereo unspecified)
maximum recommended daily dose (mmol/kg-bw/day) (TherapeuticCategory: antiasthmatic): 3.61e-06

Cc1nnc2n1-c1sc(Br)cc1C(c1ccccc1Cl)=NC2
maximum recommended daily dose (mmol/kg-bw/day) [3]: 1.06e-05

Cc1ccsc1C(=CCCN1CCC[C@@H](C(=O)O)C1)c1sccc1C
maximum recommended daily dose (mmol/kg-bw/day) [6]: 0.00285

CC[C@@H](CO)NC(=O)[C@@H]1C=C2c3cccc4c3c(cn4C)C[C@H]2N(C)C1
maximum recommended daily dose (mmol/kg-bw/day) (TherapeuticCategory: antimigraine): 0.000283

C#C[C@]1(O)CC[C@H]2[C@@H]3CCc4cc(OC)ccc4[C@H]3CC[C@@]21C
maximum recommended daily dose (mmol/kg-bw/day) (TherapeuticCategory: estrogen): 2.67e-06

CN1CCN(CCCN2c3ccccc3Sc3ccc(S(=O)(=O)N(C)C)cc32)CC1
maximum recommended daily dose (mmol/kg-bw/day) (TherapeuticCategory: neuroleptic, antiemetic): 0.00149

CC1=C(C(=O)O)N2C(=O)[C@@H](NC(=O)[C@H](N)c3ccc(O)cc3)[C@H]2SC1
maximum recommended daily dose (mmol/kg-bw/day) [4]: 0.046

CCN(CC)C(C)CN1c2ccccc2Sc2ccccc21 (stereo unspecified)
maximum recommended daily dose (mmol/kg-bw/day) (TherapeuticCategory: antiparkinsonian, anticholinergic): 0.032

NCC[C@H](O)C(=O)N[C@@H]1C[C@H](N)[C@@H](O[C@H]2O[C@H](CN)[C@@H](O)[C@H](O)[C@H]2O)[C@H](O)[C@H]1O[C@H]1O[C@H](CO)[C@@H](O)[C@H](N)[C@H]1O
maximum recommended daily dose (mmol/kg-bw/day) [4]: 0.0256

CC(=O)Nc1c(I)cc(I)c(C(=O)O)c1I
maximum recommended daily dose (mmol/kg-bw/day) (TherapeuticCategory: diagnostic aid): 0.18

CN1CCCC(=C(c2cccs2)c2cccs2)C1
maximum recommended daily dose (mmol/kg-bw/day) (TherapeuticCategory: antitussive): 0.0182

CCC(COC(=O)c1cc(OC)c(OC)c(OC)c1)(c1ccccc1)N(C)C (stereo unspecified)
maximum recommended daily dose (mmol/kg-bw/day) (TherapeuticCategory: antispasmodic): 0.0258

O=c1[nH]cnc2[nH]ncc12
maximum recommended daily dose (mmol/kg-bw/day) (TherapeuticCategory: antiurolithic): 0.0977

O=C(O)CCC(=O)O
maximum recommended daily dose (mmol/kg-bw/day) [2]: 0.847

Nc1ccc(C(=O)O)c(O)c1
maximum recommended daily dose (mmol/kg-bw/day) [4]: 1.31

Cc1ccc(S(=O)(=O)NC(=O)NN2CC3CCCC3C2)cc1 (stereo unspecified)
maximum recommended daily dose (mmol/kg-bw/day) (TherapeuticCategory: antidiabetic): 0.0165

CCOC(=O)[C@H](CCc1ccccc1)N[C@@H](C)C(=O)N1Cc2cc(OC)c(OC)cc2C[C@H]1C(=O)O
maximum recommended daily dose (mmol/kg-bw/day) (TherapeuticCategory: antihypertensive, ACE inhibitor): 0.00167

CCCCc1ccc(C(=O)O)nc1
maximum recommended daily dose (mmol/kg-bw/day) (TherapeuticCategory: none): 0.0418

CCCN(CC)C(CC)C(=O)Nc1c(C)cccc1C (stereo unspecified)
maximum recommended daily dose (mmol/kg-bw/day) (TherapeuticCategory: local anesthetic): 0.0241

CC(C)NCC(O)COc1cccc2[nH]ccc12 (stereo unspecified)
maximum recommended daily dose (mmol/kg-bw/day) [1]: 0.00403

COc1ccc2[nH]cc(CCNC(C)=O)c2c1
maximum recommended daily dose (mmol/kg-bw/day) (TherapeuticCategory: antioxidant): 0.000359

CC(C)[N+](C)(CCOC(=O)C1c2ccccc2Oc2ccccc21)C(C)C
maximum recommended daily dose (mmol/kg-bw/day) (TherapeuticCategory: anticholinergic): 0.00279

CC(C)COC(=O)c1ccc(N)cc1
maximum recommended daily dose (mmol/kg-bw/day) (TherapeuticCategory: topical anesthetic): 0.0345

C/C=C(/CC[C@@H](C)[C@H]1CC[C@H]2C3=CC[C@H]4[C@H](C)[C@@H](O)CC[C@]4(C)[C@H]3CC[C@]12C)C(C)C
maximum recommended daily dose (mmol/kg-bw/day) (TherapeuticCategory: anticholinesteremic): 0.234

CN1CCCN=C1/C=C/c1cccs1
maximum recommended daily dose (mmol/kg-bw/day) (TherapeuticCategory: anthelmintic): 0.0969
